Test results reported in ChEMBL document CHEMBL3301562, “MMV Box screening against Plasmodium falciparum protein kinases and aminoacyl tRNA synthetases”.

How the values were obtained:
Format in all cases: functional
[1] = molecular target: Calcium-dependent protein kinase 1 (Plasmodium falciparum, UniProt P62344); assay: MMV: CDPK1 Protein kinase inhibition assay using recombinant PfCDPK1, syntide 2 peptide substrate, ATP and KinaseGlo to measure % inhibition at 1 uM MMV box compound.
[2] = molecular target: T1, Cdk-related protein kinase 6 (Plasmodium falciparum, UniProt O77239); assay: Final concentrations were 1.5 uM ATP, 5 mM MnCl2, and 15 ug/ml PK6 in a buffer of 100 mM Tris-HCl (pH 7.5). 50 ug/mL MBP was provided as the substrate; 10 uM staurosporine was used as a control inhibitor. Incubation time was 3 hours and 40 minutes.The catalytic activity of each kinase was considered proportional to ATP consumed, as determined from measurements of residual [ATP] with the luciferase-based reagent Kinase-Glo (Promega) following incubation. Luminescence (proportional to residual [ATP]) was measured on the plate readers FLx800 (BioTek Instruments, Winooski, VT, USA) and MicroBeta2.
T1 sequence (O77239 whole entry): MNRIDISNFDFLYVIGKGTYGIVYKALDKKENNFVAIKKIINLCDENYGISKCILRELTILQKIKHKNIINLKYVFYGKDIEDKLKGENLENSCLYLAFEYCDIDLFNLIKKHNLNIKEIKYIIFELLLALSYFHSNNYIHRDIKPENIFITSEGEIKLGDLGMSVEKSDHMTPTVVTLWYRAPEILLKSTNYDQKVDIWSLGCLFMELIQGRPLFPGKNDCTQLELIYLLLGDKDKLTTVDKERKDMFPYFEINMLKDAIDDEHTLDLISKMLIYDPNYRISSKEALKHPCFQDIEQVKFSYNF

[3] = molecular target: T2, Mitogen-activated protein kinase (Plasmodium falciparum, UniProt Q25917); assay: Final concentrations were 1 uM ATP, 0.5 mM DTT, 1 mM MgCl2, 0.5 mg/mL BSA, and 10 ug/ml MAP2 in a buffer of 50 mM HEPES (pH 7.0). 0.5 mg/mL histone III-S served as the substrate (13); 100 uM AMP-PNP, an ATP analog, was used as a control inhibitor. Incubation time was 4 hours.
T2 sequence (Q25917 whole entry): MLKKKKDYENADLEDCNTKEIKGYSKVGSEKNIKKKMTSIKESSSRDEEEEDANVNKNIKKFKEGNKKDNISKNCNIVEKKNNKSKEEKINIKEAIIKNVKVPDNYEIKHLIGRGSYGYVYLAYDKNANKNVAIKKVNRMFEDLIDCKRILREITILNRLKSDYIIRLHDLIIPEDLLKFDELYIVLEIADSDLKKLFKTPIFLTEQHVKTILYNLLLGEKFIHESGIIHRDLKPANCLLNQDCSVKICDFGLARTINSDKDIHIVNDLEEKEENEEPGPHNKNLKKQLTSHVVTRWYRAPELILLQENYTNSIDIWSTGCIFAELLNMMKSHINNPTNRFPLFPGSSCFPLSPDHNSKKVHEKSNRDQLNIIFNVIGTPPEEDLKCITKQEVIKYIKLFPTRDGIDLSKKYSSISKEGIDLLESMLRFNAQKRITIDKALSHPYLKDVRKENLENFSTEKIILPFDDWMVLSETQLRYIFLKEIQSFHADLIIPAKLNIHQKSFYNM

Proline--tRNA ligase = molecular target: T3, Proline--tRNA ligase (Plasmodium falciparum (isolate 3D7), UniProt Q8I5R7); assay: MMV: ProRS recombinant Plasmodium falciparum Prolyl-tRNA-synthetase, assay with yeast tRNA, ATP, and proline and 3 uM MMV malaria box compound, assay read out with kinase glo as % inhibition.
T3 sequence (Q8I5R7 whole entry): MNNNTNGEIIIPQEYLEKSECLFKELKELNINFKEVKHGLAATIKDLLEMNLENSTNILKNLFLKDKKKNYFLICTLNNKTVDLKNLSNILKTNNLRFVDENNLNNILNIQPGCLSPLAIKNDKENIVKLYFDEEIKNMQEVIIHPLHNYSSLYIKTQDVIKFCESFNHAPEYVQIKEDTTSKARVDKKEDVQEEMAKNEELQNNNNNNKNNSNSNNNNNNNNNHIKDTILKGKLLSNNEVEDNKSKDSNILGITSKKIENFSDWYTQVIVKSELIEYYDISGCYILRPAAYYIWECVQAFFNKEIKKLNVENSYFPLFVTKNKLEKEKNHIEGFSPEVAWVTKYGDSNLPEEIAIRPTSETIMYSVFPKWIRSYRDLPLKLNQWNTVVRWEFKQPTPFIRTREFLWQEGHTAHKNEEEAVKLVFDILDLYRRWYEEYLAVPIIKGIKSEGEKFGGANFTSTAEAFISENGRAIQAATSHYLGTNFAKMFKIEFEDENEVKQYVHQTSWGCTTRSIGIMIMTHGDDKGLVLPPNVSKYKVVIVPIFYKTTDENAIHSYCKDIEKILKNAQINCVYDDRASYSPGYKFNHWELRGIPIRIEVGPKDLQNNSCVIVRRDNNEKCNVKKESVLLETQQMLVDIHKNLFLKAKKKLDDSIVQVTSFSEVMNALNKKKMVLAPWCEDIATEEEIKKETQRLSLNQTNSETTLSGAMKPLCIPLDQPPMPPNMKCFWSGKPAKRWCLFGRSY

[4] = molecular target: T4, Putative uncharacterized protein pk7 (Plasmodium falciparum, UniProt O96214); assay: Final concentrations were 1 uM ATP, 2 mM DTT, 20 mM MgCl2, 2 mM MnCl2, 0.01% BSA, and 6 ug/ml PK7, in a buffer of 20 mM Tris-HCl (pH 7.5). The enzyme itself was the only substrate present (since autophosphorylation occurs); 100 uM 1NA-PP1 was used as a control inhibitor. Incubation time was 3 hours.
T4 sequence (O96214 whole entry): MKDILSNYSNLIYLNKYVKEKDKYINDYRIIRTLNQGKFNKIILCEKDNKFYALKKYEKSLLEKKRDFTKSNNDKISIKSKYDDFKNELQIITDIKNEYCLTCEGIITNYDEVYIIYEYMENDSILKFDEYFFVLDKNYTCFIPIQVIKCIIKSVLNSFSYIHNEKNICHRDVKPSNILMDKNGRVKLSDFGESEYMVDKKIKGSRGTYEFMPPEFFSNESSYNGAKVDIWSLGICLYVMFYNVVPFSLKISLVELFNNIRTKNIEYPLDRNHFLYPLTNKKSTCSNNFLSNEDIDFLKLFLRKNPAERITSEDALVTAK

[5] = molecular target: T5, Calcium-dependent protein kinase 4 (Plasmodium falciparum (isolate 3D7), UniProt Q8IBS5); assay: MMV: CDPK4 Protein kinase inhibition assay using recombinant PfCDPK4, syntide2 peptide substrate, ATP and KinaseGlo to measure % inhibition at 1 uM MMV box compound.
T5 sequence (Q8IBS5 whole entry): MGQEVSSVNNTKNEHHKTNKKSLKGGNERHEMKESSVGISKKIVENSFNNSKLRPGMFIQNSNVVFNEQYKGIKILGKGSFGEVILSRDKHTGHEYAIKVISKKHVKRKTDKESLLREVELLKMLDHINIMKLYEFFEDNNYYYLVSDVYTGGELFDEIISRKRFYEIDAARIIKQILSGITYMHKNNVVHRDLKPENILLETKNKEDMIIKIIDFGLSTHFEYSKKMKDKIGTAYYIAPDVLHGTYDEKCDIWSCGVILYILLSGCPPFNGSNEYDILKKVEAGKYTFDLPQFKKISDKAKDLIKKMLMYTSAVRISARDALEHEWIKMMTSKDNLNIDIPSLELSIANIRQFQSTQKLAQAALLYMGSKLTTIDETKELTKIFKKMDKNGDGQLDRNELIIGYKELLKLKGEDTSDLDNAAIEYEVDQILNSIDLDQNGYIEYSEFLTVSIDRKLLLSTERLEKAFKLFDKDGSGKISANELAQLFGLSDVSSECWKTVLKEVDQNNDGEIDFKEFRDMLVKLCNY

Lysine--tRNA ligase = Lysine--tRNA ligase (Plasmodium falciparum (isolate 3D7), UniProt Q8IDJ8); assay: MMV: KRS recombinant Plasmodium falciparum Lysyl-tRNA-synthetase, assay with yeast tRNA, ATP, and lysine and 3 uM MMV malaria box compound, assay read out with kinase glo as % inhibition.
Sequence of Lysine--tRNA ligase (Q8IDJ8 whole entry): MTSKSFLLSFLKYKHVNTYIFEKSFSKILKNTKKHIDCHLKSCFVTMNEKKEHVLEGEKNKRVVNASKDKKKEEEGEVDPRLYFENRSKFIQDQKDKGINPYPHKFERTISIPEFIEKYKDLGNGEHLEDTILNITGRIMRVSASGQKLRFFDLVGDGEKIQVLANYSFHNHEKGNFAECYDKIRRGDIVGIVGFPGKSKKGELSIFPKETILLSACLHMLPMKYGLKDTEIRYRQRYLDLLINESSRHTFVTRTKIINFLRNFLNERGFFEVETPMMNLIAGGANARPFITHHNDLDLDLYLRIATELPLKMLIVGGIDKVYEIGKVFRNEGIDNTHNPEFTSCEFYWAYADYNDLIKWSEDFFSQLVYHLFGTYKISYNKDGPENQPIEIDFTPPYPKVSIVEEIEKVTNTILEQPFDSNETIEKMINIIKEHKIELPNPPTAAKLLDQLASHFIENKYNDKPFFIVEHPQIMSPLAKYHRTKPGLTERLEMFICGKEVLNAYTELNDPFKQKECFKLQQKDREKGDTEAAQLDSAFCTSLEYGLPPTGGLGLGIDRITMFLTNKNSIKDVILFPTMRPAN

Sequence of Calcium-dependent protein kinase 1 (P62344 whole entry): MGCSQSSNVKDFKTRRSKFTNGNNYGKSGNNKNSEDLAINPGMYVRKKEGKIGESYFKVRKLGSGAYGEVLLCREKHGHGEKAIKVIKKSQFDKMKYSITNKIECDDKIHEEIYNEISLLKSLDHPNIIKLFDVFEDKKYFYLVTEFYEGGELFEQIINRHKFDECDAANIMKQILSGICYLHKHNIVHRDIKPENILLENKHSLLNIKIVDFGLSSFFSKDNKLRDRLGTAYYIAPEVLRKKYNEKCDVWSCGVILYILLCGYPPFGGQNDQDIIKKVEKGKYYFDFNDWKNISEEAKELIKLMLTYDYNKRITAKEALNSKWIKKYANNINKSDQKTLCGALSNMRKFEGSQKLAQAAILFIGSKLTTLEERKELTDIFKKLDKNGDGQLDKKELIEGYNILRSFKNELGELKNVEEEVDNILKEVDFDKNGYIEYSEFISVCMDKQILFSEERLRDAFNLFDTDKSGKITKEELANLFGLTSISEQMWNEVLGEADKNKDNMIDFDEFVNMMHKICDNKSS

Row | SMILES | IC50 [1] | IC50 [2] | IC50 [3] | IC50 (Proline--tRNA ligase) | IC50 [4] | IC50 [5] | IC50 (Lysine--tRNA ligase)
1 | CCOC(=O)C1=C(C)N=c2sc(=Cc3cc(Cl)ccc3O)c(=O)n2C1c1ccc(OC)cc1 (configuration not stated) | > 1 µM | > 1 µM | > 1 µM | > 2.5 µM | > 1 µM | > 1 µM | > 2.5 µM
2 | FC(F)(F)c1cccc(Nc2nc3ccccc3nc2Nc2cccc(C(F)(F)F)c2)c1 | > 1 µM | > 1 µM | > 1 µM | > 2.5 µM | > 1 µM | > 1 µM | > 2.5 µM
3 | CC(=O)c1ccc(NC(=O)CSc2nc(-c3ccccc3Cl)ns2)cc1 | > 1 µM | > 1 µM | > 1 µM | > 2.5 µM | > 1 µM | > 1 µM | > 2.5 µM
4 | O=C(NCCCN1CCC(N2CCCCC2)CC1)C1=Cc2cc(Br)ccc2OC1 | > 1 µM | > 1 µM | > 1 µM | > 2.5 µM | > 1 µM | > 1 µM | > 2.5 µM
5 | Cc1ccnc(NC(c2cccc(OCc3ccccc3)c2)c2ccc3cccnc3c2O)c1 (configuration not stated) | > 1 µM | > 1 µM | > 1 µM | > 2.5 µM | > 1 µM | > 1 µM | > 2.5 µM
6 | Cc1ccc(OCCCCCCNCCO)c(C)c1 | > 1 µM | > 1 µM | > 1 µM | > 2.5 µM | > 1 µM | > 1 µM | > 2.5 µM
7 | CC(C)CCNCC(O)Cn1c2ccccc2c2ccccc21 (configuration not stated) | > 1 µM | > 1 µM | > 1 µM | > 2.5 µM | > 1 µM | > 1 µM | > 2.5 µM
8 | O=C(Nc1ccc(C23CC4CC(CC(c5ccccc5)(C4)C2)C3)cc1)c1cccs1 | > 1 µM | > 1 µM | > 1 µM | > 2.5 µM | > 1 µM | > 1 µM | > 2.5 µM
9 | Cc1ccc2nc(C)cc(Nc3cccc(C(F)(F)F)c3)c2c1 | > 1 µM | > 1 µM | > 1 µM | > 2.5 µM | > 1 µM | > 1 µM | > 2.5 µM
10 | COc1ccc(-c2cc(=O)oc3c4c(ccc23)OCN(Cc2ccc(F)cc2)C4)cc1 | > 1 µM | > 1 µM | > 1 µM | > 2.5 µM | > 1 µM | > 1 µM | > 2.5 µM
11 | CCOC(=O)C1(Cc2ccccc2)CCN(Cc2cccc(OC)c2O)CC1 | > 1 µM | > 1 µM | > 1 µM | > 2.5 µM | > 1 µM | > 1 µM | > 2.5 µM
12 | CC(C)(C)c1ccc2c(c1)CN(Cc1ccc(Cl)cc1)CO2 | > 1 µM | > 1 µM | > 1 µM | > 2.5 µM | > 1 µM | > 1 µM | > 2.5 µM
13 | CCCCC(O)(c1ccc(Cl)cc1)C(CN1CCOCC1)c1ccc(Cl)cc1 (configuration not stated) | > 1 µM | > 1 µM | > 1 µM | > 2.5 µM | > 1 µM | > 1 µM | > 2.5 µM
14 | COc1ccc(OC)c(C2C3=C(CC(C)(C)CC3=O)N(c3ccc(Cl)c(Cl)c3)C3=C2C(=O)CC(C)(C)C3)c1 | > 1 µM | > 1 µM | > 1 µM | > 2.5 µM | > 1 µM | > 1 µM | > 2.5 µM
15 | Cc1cc(=O)oc2c1ccc1oc(C(=O)c3ccccc3)c(C)c12 | > 1 µM | > 1 µM | > 1 µM | > 2.5 µM | > 1 µM | > 1 µM | > 2.5 µM
16 | COc1ccc2c(c1OC)C(=O)N1c3ccccc3N=C(c3ccc(C)cc3)CC21 (configuration not stated) | > 1 µM | > 1 µM | > 1 µM | > 2.5 µM | > 1 µM | > 1 µM | > 2.5 µM
17 | CCCCCCc1cc(O)c2c3c(c(=O)oc2c1)CCC(C)C3 (configuration not stated) | > 1 µM | > 1 µM | > 1 µM | > 2.5 µM | > 1 µM | > 1 µM | > 2.5 µM
18 | CC1=C(CC(=O)c2cccc([N+](=O)[O-])c2)C(=O)c2ccccc2C1=O | > 1 µM | > 1 µM | > 1 µM | > 2.5 µM | > 1 µM | > 1 µM | > 2.5 µM
19 | COc1ccc(C)c2sc(N(Cc3cccnc3)C(=O)c3ccc(C#N)cc3)nc12 | > 1 µM | > 1 µM | > 1 µM | > 2.5 µM | > 1 µM | > 1 µM | > 2.5 µM
20 | CCCCCn1c(=N)n(CC(O)COc2cccc(C)c2)c2ccccc21 (configuration not stated) | > 1 µM | > 1 µM | > 1 µM | > 2.5 µM | > 1 µM | > 1 µM | > 2.5 µM
21 | Cc1ccc(S(=O)(=O)c2c(COC(=O)c3cccc(C)c3)c(-c3ccccc3)nn2C)cc1 | > 1 µM | > 1 µM | > 1 µM | > 2.5 µM | > 1 µM | > 1 µM | > 2.5 µM
